pEC50: −log10 of the molar value.
Test system: HCV replicon
Test: HCV replicon replication assay (NPTII ELISA)
Format: cell-based, Hepatitis C virus (Huh-7 cells)
Details: Hepatitis C virus, Huh-7, 72 h, inhibition of HCV replicon replication in Huh-7 HCV replicon-containing cells, three days incubation, NPT level by ELISA; read-out: EC50
Experimental: Compounds claimed herein are tested for the ability to inhibit viral replication of the Hepatitis C replicon in cultured cells in which the HCV replicon construct has been incorporated. The HCV replicon system was described by Bartenschlager, et. al (Science, 285, pp. 110-113 (1999)). The replicon system is predictive of in vivo anti-HCV activity; compounds that are active in humans uniformly evidence activity in the replicon assay.
In this assay HCV replicon containing cells are treated with different concentrations of the test compound to ascertain the ability of the test compound to suppress replication of the HCV replicon. As a positive control, HCV replicon-containing cells are treated with different concentrations of interferon alpha, a known inhibitor of HCV replication. The replicon assay system includes Neomycin Phosphotransferase (NPT) as a component of the replicon itself in order to detect the transcription of replicon gene products in the host cell. Cells in which the HCV replicon is actively replicating have high levels of NPT; the level of NPT is proportional to HCV replication. […] The NPT level of each sample is measured using a captured ELISA.
The HCV replicon contains, 5′-3′, the HCV-IRES, the neomycin phosphotransferase (neo) gene, the IRES of encephalomyocarditis virus, which directs translation of HCV sequences NS3 to NS5B, and the 3′-NTR. The sequence of the HCV replicon has been deposited in GenBank (Accession no. AJ242652).
The replicon is transfected into Huh-7 cells using standard methods such as electroporation.
The cells are then seeded onto 96-well plates at a density of 6000-7500 cells/100 microliters/well (6-7.5×10^5 cells/10 ml/plate). The plates are then incubated at 37° C. in a 5% CO2 incubator.
HCV replicon-containing cells are rinsed with once PBS once; 2 mls of trypsin are then added. Cells are incubated at 37° C. in a 5% CO2 incubator for 3-5 minutes. 10 mls of complete medium is added to stop the reaction. Cells are blown gently, put into a 15 ml tube, and spun at 1200 rpm for four minutes. The trypsin/medium solution is removed and 5 mls of medium (500 ml DMEM (high glucose)) from BRL catalog #12430-054; 50 mls 10% FBS, 5% Geneticin G418 (50 mg/ml, BRL catalog #10131-035), 5 ml MEM non-essential amino acids (100× BRL #11140-050) and 5 ml pen-strep (BRL #15140-148) is added. The cells and media are mixed carefully
Cells are plated with screening medium (500 ml DMEM (BRL #21063-029), 50 ml FBS (BRL #10082-147) and 5 ml MEM non-essential amino acid (BRL #11140-050) at 6000-7500 cells/100 μl/well of 96 well plate (6-7.5×10^5 cells/10 ml/plate). Plates are placed into 37° C. 5% CO2 incubator overnight.
The following morning, drugs (test compounds or interferon alpha) are diluted in 96 well U bottom plates with media or DMSO/media, depending on the final concentration chosen for screening. Generally for 6 concentrations of each test compounds ranging from 10 micromolar to 0.03 micromolar are applied. 100 μl of the test compound dilution is placed in wells of the 96 well plate containing the HCV replicon cells. Media without drug is added to some wells as a negative controls. DMSO is known to affect cell growth. Therefore, if drugs diluted in DMSO are used, all wells, including negative control (media only) and positive control (interferon alpha) wells, must contain the same concentration of DMSO, for single dose screening. The plates are incubated at 37° C. in a humidified 5% CO2 environment for three days.
On day four, the NTPII assay is quantitated. The medium is poured from the plates and the plates are washed once in 200 μl of PBS. The PBS is then decanted and the plates tapped in a paper towel to remove any remaining PBS. Cells are fixed in situ with 100 μl/well of pre-cooled (−20° C.) methanol:acetone (1:1) and the plates are placed at −20° C. for 30 minutes.
The fixing solution is poured from the plates and the plates allowed to air-dry completely (approximately one hour). […]

CCCCCOc1ccc(N(C(=O)C2CC2)c2nc(-c3cccnc3)cs2)cc1C(F)(F)F [Compound 15, N-(4-(pentyloxy)-3-(trifluoromethyl)phenyl)-N-(4-(pyridin-3-yl)thiazol-2-yl)cyclopropanecarboxamide]
pEC50: > 6.00

CCCCCOc1ccc2c(c1)[nH]c(=O)c(=O)n2-c1nc(-c2cccnc2)cs1 [Compound 128, 6-(pentyloxy)-1-(4-(pyridin-3-yl)thiazol-2-yl)quinoxaline-2,3(1H,4H)-dione]
pEC50: < 5.00

CCCCCOc1ccc(N(C(=O)C(=O)OC)c2nc(-c3ccncc3)cs2)cc1C(F)(F)F [Compound 35, methyl 2-oxo-2-((4-(pentyloxy)-3-(trifluoromethyl)phenyl)(4-(pyridin-4-yl)thiazol-2-yl)amino)acetate]
pEC50: > 6.00

CCCCCOc1ccc(N(C(=O)C2CC2)c2nc(-c3cccnc3)cs2)cc1F [Compound 26, N-(3-fluoro-4-(pentyloxy)phenyl)-N-(4-(pyridin-3-yl)thiazol-2-yl)cyclopropanecarboxamide]
pEC50: > 6.00

CCCCCOc1ccc(N(C(=O)c2cc(C)on2)c2nc(-c3cccnc3)cs2)cc1C(F)(F)F [Compound 34, 5-methyl-N-(4-(pentyloxy)-3-(trifluoromethyl)phenyl)-N-(4-(pyridin-3-yl)thiazol-2-yl)isoxazole-3-carboxamide]
pEC50: > 6.00

CCCCCOc1ccc(N(C(=O)C(=O)OC)c2nc(-c3ccc(F)cc3)cs2)cc1F [Compound 45, methyl 2-((3-fluoro-4-(pentyloxy)phenyl)(4-(4-fluorophenyl)thiazol-2-yl)amino)-2-oxoacetate]
pEC50: > 6.00

CCCCOc1ccc(N(C(N)=O)c2nc(-c3ccccn3)cs2)cc1C(F)(F)F [Compound 103, 1-(4-butoxy-3-(trifluoromethyl)phenyl)-1-(4-(pyridin-2-yl)thiazol-2-yl)urea]
pEC50: > 6.00

CCCCOc1ccc(N(C(N)=O)c2nc(-c3cccnc3)cs2)cc1C(F)(F)F [Compound 136, 1-(4-butoxy-3-(trifluoromethyl)phenyl)-1-(4-(pyridin-3-yl)thiazol-2-yl)urea]
pEC50: > 6.00

CCCCCCCCc1ccc(N(C(=O)C(=O)OC)c2nc(-c3cccnc3)cs2)cc1 [Compound 39, methyl 2-((4-octylphenyl)(4-(pyridin-3-yl)thiazol-2-yl)amino)-2-oxoacetate]
pEC50: > 6.00

CCCCCCCCOc1ccc(N(COC(=O)C(C)(C)C)c2nc(-c3cccnc3)c(F)s2)cc1C(F)(F)F [Compound 192, ((5-fluoro-4-(pyridin-3-yl)thiazol-2-yl)(4-(octyloxy)-3-(trifluoromethyl)phenyl)amino)methyl pivalate]
pEC50: > 6.00

CCCCCOc1ccc(N(C(=O)C(=O)OC)c2nc(-c3ccc(F)cc3)cs2)cc1C(F)(F)F [Compound 38, methyl 2-((4-(4-fluorophenyl)thiazol-2-yl)(4-(pentyloxy)-3-(trifluoromethyl)phenyl)amino)-2-oxoacetate]
pEC50: > 6.00

CCCCCOc1ccc(N(C(N)=O)c2nc(-c3ccc(F)cc3F)cs2)cc1C(F)(F)F [Compound 86, 1-(4-(2,4-difluorophenyl)thiazol-2-yl)-1-(4-(pentyloxy)-3-(trifluoromethyl)phenyl)urea]
pEC50: > 6.00

CCCCCOc1ccc(N(C(N)=O)c2nc(-c3ccncc3)cs2)cc1F [Compound 141, 1-(3-fluoro-4-(pentyloxy)phenyl)-1-(4-(pyridin-4-yl)thiazol-2-yl)urea]
pEC50: < 5.00

CCCCCOc1ccc(N(C(=O)c2cc(C)on2)c2nc(-c3nc4ccccc4s3)cs2)cc1C(F)(F)F [Compound 94, N-(4-(benzo[d]thiazol-2-yl)thiazol-2-yl)-5-methyl-N-(4-(pentyloxy)-3-(trifluoromethyl)phenyl)isoxazole-3-carboxamide]
pEC50: > 6.00

CCCCCOc1ccc(N(C(N)=O)c2nc(-c3cccnc3C)cs2)cc1C(F)(F)F [Compound 70, 1-(4-(2-methylpyridin-3-yl)thiazol-2-yl)-1-(4-(pentyloxy)-3-(trifluoromethyl)phenyl)urea]
pEC50: > 6.00

CCCCCOc1ccc(N(C(N)=O)c2nc(-c3cccnc3)cs2)cc1C(F)(F)F [Compound 49, 1-(4-(pentyloxy)-3-(trifluoromethyl)phenyl)-1-(4-(pyridin-3-yl)thiazol-2-yl)urea]
pEC50: > 6.00

CCCCCOc1ccc(N(C(N)=O)c2nc(-c3ccccn3)cs2)cc1F [Compound 112, 1-(3-fluoro-4-(pentyloxy)phenyl)-1-(4-(pyridin-2-yl)thiazol-2-yl)urea]
pEC50: 5.00 to 6.00

CCCCOc1ccc(N(C(N)=O)c2nc(-c3ccncc3)cs2)cc1C(F)(F)F [Compound 137, 1-(4-butoxy-3-(trifluoromethyl)phenyl)-1-(4-(pyridin-4-yl)thiazol-2-yl)urea]
pEC50: > 6.00

CCCCCCCCc1ccc(N(C(=O)OCC[N+](C)(C)C)c2nc(-c3cccnc3)c(F)s2)cc1C(F)(F)F [Compound 181]
pEC50: > 6.00

CCCCCOc1ccc(N(C(=O)NC(C)(C)C)c2nc(-c3cccnc3)cs2)cc1C(F)(F)F [Compound 76, 3-tert-butyl-1-(4-(pentyloxy)-3-(trifluoromethyl)phenyl)-1-(4-(pyridin-3-yl)thiazol-2-yl)urea]
pEC50: > 6.00

CCCCCCCCOc1ccc(N(C(=O)NCC(=O)O)c2nc(-c3cccnc3)c(F)s2)cc1C(F)(F)F [Compound 166, 2-(3-(5-fluoro-4-(pyridin-3-yl)thiazol-2-yl)-3-(4-(octyloxy)-3-(trifluoromethyl)phenyl)ureido)acetic acid]
pEC50: > 6.00

CCCCCCCCOc1ccc(N(C(=O)COC(C)=O)c2nc(-c3ccc(F)cc3)cs2)cc1 [Compound 60, 2-((4-(4-fluorophenyl)thiazol-2-yl)(4-(octyloxy)phenyl)amino)-2-oxoethyl acetate]
pEC50: > 6.00

CCCCCOc1ccc(N(C)c2nc(C(=O)Nc3ccc(C#N)cc3)cs2)cc1C(F)(F)F [Compound 5, N-(4-cyanophenyl)-2-(methyl(4-(pentyloxy)-3-(trifluoromethyl)phenyl)amino)thiazole-4-carboxamide]
pEC50: < 5.00

CCCCCOc1ccc(N(C(C)=O)c2nc(-c3ccc(CN(C)C)nc3)cs2)cc1C(F)(F)F [Compound 16, N-(4-(6-((dimethylamino)methyl)pyridin-3-yl)thiazol-2-yl)-N-(4-(pentyloxy)-3-(trifluoromethyl)phenyl)acetamide]
pEC50: 5.00 to 6.00

CCCCCN(C)c1ccc(N(C(N)=O)c2nc(-c3ccc4c(c3)NC(=O)CO4)cs2)cc1C(F)(F)F [Compound 105, 1-(4-(methyl(pentyl)amino)-3-(trifluoromethyl)phenyl)-1-(4-(3-oxo-3,4-dihydro-2H-benzo[b][1,4]oxazin-6-yl)thiazol-2-yl)urea]
pEC50: 5.00 to 6.00

CCCCCOc1ccc(N(C(N)=O)c2nc(-c3ccc(F)cc3)cs2)cc1F [Compound 111, 1-(3-fluoro-4-(pentyloxy)phenyl)-1-(4-(4-fluorophenyl)thiazol-2-yl)urea]
pEC50: > 6.00

CCCCCOc1ccc(N(C(=O)C2CC2)c2nc(CN(C)C)cs2)cc1C(F)(F)F [Compound 22, N-(4-((dimethylamino)methyl)thiazol-2-yl)-N-(4-(pentyloxy)-3-(trifluoromethyl)phenyl)cyclopropane-carboxamide]
pEC50: 5.00 to 6.00

CCCCCCCCOc1ccc(N(C(=O)c2cccnc2)c2nc(-c3nc4ccccc4s3)cs2)cc1 [Compound 101, N-(4-(benzo[d]thiazol-2-yl)thiazol-2-yl)-N-(4-(octyloxy)phenyl)nicotinamide]
pEC50: 5.00 to 6.00
